US20220402935A1, “HETEROCYCLIC COMPOUND” (FIMECS, INC., priority 2019, published 2022)

What was measured:
[1] = biological target: T1, human XIAP_BIR3 domain purified protein (Homo sapiens, UniProt P98170); assay: XIAP binding inhibitory activity (HTRF, b-Smac ligand); settings: second symbol of cell; read-out: XIAP binding inhibition IC50 value
T1 construct: purchased R & D
Procedure, shortened: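 HTRF competition between compound and C-terminally biotinylated Smac peptide AVPIAQK for His-tagged XIAP BIR3, both diluted to 90 nM before addition, in pH 7.5 HEPES/NaCl/BSA/Triton buffer. Eu-cryptate anti-His and streptavidin-XL665 added, ≥4 h at room temperature in the dark; inhibition % from 665/615 nm ratio versus no-compound wells.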

IRAK-M [2] = biological target: T2, IRAK-M (Homo sapiens, UniProt Q9Y616); assay: IRAK-M binding inhibitory activity (KINOMEscan active site-dependent competitive assay); parameters: purchased Eurofins Discover X; settings: for remaining binding at 1 µM: concentration of the test compound 1 μM, first symbol of cell, read-out: IRAK-M binding inhibition activity % Ctrl
T2 sequence (Q9Y616 1-596): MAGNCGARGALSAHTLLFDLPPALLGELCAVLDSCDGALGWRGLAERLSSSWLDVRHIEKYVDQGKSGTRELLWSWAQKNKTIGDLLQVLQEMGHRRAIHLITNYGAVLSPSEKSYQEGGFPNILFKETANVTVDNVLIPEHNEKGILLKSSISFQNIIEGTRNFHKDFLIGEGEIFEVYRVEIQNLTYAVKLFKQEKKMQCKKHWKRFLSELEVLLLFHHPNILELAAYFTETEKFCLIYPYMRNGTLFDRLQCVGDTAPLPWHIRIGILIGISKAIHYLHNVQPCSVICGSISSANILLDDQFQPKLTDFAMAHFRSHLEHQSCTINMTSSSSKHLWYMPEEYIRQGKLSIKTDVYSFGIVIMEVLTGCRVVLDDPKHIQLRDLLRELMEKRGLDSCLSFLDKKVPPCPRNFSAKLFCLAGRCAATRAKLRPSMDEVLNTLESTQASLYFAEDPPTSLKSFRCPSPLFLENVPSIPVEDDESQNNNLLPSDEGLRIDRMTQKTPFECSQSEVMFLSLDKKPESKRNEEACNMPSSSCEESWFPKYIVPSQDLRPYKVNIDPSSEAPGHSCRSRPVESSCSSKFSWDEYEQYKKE
Procedure, shortened: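 Active site-dependent competition binding assay (KINOMEscan) against human IRAK-M. Result expressed as % Ctrl = (compound signal − positive control signal)/(DMSO signal − positive control signal) × 100, where DMSO = 100% Ctrl and control compound = 0% Ctrl.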

IRAK-M [3] = biological target: T2, IRAK-M; assay: In vitro degradation activity of target protein (IRAK-M ELISA in THP1 cells); assay type: cell-based; parameters: host or cells: THP1 cells; settings: 24 hours, second symbol of cell, read-out: IRAK-M 50% degradation concentration (DC50 value)
Protocol: In vitro degradation activities of target protein of the example compounds were evaluated using Enzyme-linked immuno-sorbent assay (ELISA) by the following assay steps. THP1 cells (ATCC, TIB-202) were cultured in RPMI-1640 supplemented with 10% FBS, lx sodium pyruvate, lx HEPES, D-(+)-glucose and 1% penicillin/streptomycin. THP1 cells were seeded at a density of 1×10^6 cells/well in 24-well plate and treated with DMSO control or test compound, and then incubated for 24 hours. The cells were collected and lysed on ice for 30 minutes in lysis buffer (PBS containing 0.1% Triton X-100) containing a protease inhibitor cocktail (Roche, Cat #11836170001). The lysates were sonicated for 30 sec ON/30 sec OFF for ten cycles and centrifuged for 10 minutes at 13k rpm at 4° C. Protein concentrations were determined by the BCA assay (Sigma, Cat #QPBCA-1KT). The ELISA assay was performed using the Human IRAK3/IRAKM/IRAK-M ELISA Kit (LifeSpan BioSciences, Cat #LS-F35271), and the protein levels of IRAK-M were evaluated according to the kit protocol. As to the IRAK-M degradation rate of test compounds, protein degradation rate (%) when the concentration of the test compound is […] described as A≥75%, 50%≤B<75%, 25%≤C<50%, D<25%, or 50% degradation concentration (DC50 value) described as A<0.03 μM, 0.03 μM≤B<0.1 μM, 0.1 μM≤C<0.3 μM, 0.3 μM≤D<1 μM, is shown in the table below.

T1 sequence (P98170 252-356 limits assumed): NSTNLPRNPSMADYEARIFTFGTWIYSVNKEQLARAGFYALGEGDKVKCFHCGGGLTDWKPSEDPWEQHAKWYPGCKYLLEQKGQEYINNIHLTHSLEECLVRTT

| Structure (SMILES) | IC50 [1] [nM] | remaining binding at 1 µM (IRAK-M [2]) [%] | DC50 (IRAK-M [3]) [nM] | IC50 (IRAK-M [2]; second symbol of cell, read-out: IRAK-M binding inhibition IC50 value) [nM] |
| --- | --- | --- | --- | --- |
| CN[C@@H](C)C(=O)N[C@H](C(=O)N1CCN(C(=O)c2cc3c(OCCOCCOCCOCCOc4cc(CN5CCC(Oc6ccnc7ccsc67)CC5)on4)c(F)c(F)cc3n2C)CC1)C1CCCCC1 [Example 51, (S)-N-((S)-1-cyclohexyl-2-(4-(5,6-difluoro-1-methyl-4-(2-(2-(2-(2-((5-((4-(thieno[3,2-b]pyridin-7-yloxy)piperidin-1-yl)methyl)isoxazol-3-yl)oxy)ethoxy)ethoxy)ethoxy)ethoxy)-1H-indole-2-carbonyl)piperazin-1-yl)-2-oxoethyl)-2-(methylamino)propanamide] | 300 to 3000 | < 25 | 100 to 300 |  |
| CN[C@@H](C)C(=O)N[C@H](C(=O)N1CCN(C(=O)c2cc3cc(F)ccc3n2CC(=O)N2CCC[C@H]2COc2cc(CN3CCC(Oc4ccnc5ccsc45)CC3)on2)[C@@H](C)C1)C1CCCCC1 [Example 28, (S)-N-((S)-1-Cyclohexyl-2-((S)-4-(5-fluoro-1-(2-oxo-2-((S)-2-(((5-((4-(thieno[3,2-b]pyridin-7-yloxy)piperidin-1-yl)methyl)isoxazol-3-yl)oxy)methyl)pyrrolidin-1-yl)ethyl)-1H-indole-2-carbonyl)-3-methylpiperazin-1-yl)-2-oxoethyl)-2-(methylamino)propanamide] | 3000 to 30000 |  | < 30 | 300 to 1000 |
| CN[C@@H](C)C(=O)N[C@H](C(=O)N1CCC[C@H]1c1nc(C(=O)c2cccc(OCCOCCOCCOc3cc(CN4CCC(Oc5ccnc6ccsc56)CC4)on3)c2)cs1)C1CCCCC1 [Example 59, (S)-N-((S)-1-cyclohexyl-2-oxo-2-((S)-2-(4-(3-(2-(2-(2-((5-((4-(thieno[3,2-b]pyridin-7-yloxy)piperidin-1-yl)methyl)isoxazol-3-yl)oxy)ethoxy)ethoxy)ethoxy)benzoyl)thiazol-2-yl)pyrrolidin-1-yl)ethyl)-2-(methylamino)propanamide] | < 300 | < 25 | 300 to 1000 |  |
